Measurements: ChEMBL document CHEMBL1201862, “PubChem BioAssay data set” (2004)
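Values below derive from 48-hour exposures of cells grown in 96-well plates, with endpoints linearly interpolated between the two concentrations bracketing the appropriate inhibition level. The concentration for 50% growth inhibition is given as GI50.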 Active and inactive are the calls of the source. No stated cut-off is given here; in the data, active = GI50 up to about 1.1 µM and inactive = higher. Square brackets hold non-standard residues; d marks the D form. Peptide text beside a SMILES is read from it. * marks the point of attachment. NMeV = CN[C@H](C(=O)O)C(C)C; X28 = COc1ccc(CN*)c(OC)c1; Octanoyl = CCCCCCCC(=O)*; dNMeA = CN[C@H](C)C(=O)O

What was measured:
Assay in all cases: DTP human tumour cell line panel, 48 h
786-0 = tested on: 786-0
SR = tested on: SR
SK-MEL-28 = tested on: SK-MEL-28
CAKI-1 = tested on: CAKI-1
MOLT-4 = tested on: MOLT-4
UO-31 = tested on: UO-31
NCI/ADR-RES = tested on: NCI/ADR-RES
MDA-MB-435 = tested on: MDA-MB-435
HCT-116 = tested on: HCT-116
SK-OV-3 = tested on: SK-OV-3
ACHN = tested on: ACHN
SW-620 = tested on: SW-620
LOX IMVI = tested on: LOX IMVI
OVCAR-8 = tested on: OVCAR-8
TK-10 = tested on: TK-10
OVCAR-4 = tested on: OVCAR-4
CCRF-CEM = tested on: CCRF-CEM
A549 = tested on: A549
IGROV-1 = tested on: IGROV-1
HCT-15 = tested on: HCT-15

Row | SMILES | GI50 (786-0) | GI50 (SR) | GI50 (SK-MEL-28) | GI50 (CAKI-1) | GI50 (MOLT-4) | GI50 (UO-31) | GI50 (NCI/ADR-RES) | GI50 (MDA-MB-435) | GI50 (HCT-116) | GI50 (SK-OV-3) | GI50 (ACHN) | GI50 (SW-620) | GI50 (LOX IMVI) | GI50 (OVCAR-8) | GI50 (TK-10) | GI50 (OVCAR-4) | GI50 (CCRF-CEM) | GI50 (A549) | GI50 (IGROV-1) | GI50 (HCT-15) [µM]
1 | COC(=O)CCc1ccc2c(c1)CCC2 | > 100 µM (inactive) | > 100 µM (inactive) | > 100 µM (inactive) | > 100 µM (inactive) | > 100 µM (inactive) | > 100 µM (inactive) | > 100 µM (inactive) | > 100 µM (inactive) | > 100 µM (inactive) | > 100 µM (inactive) | > 100 µM (inactive) | > 100 µM (inactive) | > 100 µM (inactive) | > 100 µM (inactive) | > 100 µM (inactive) | > 100 µM (inactive) | > 100 µM (inactive) | > 100 µM (inactive) | > 100 µM (inactive) | > 100
2 | Cc1cccc2c1CC(Cc1ccccc1C(=O)O)C2=O (stereo not given) | > 100 µM (inactive) | > 100 µM (inactive) | > 100 µM (inactive) | > 100 µM (inactive) | > 100 µM (inactive) | > 100 µM (inactive) | > 100 µM (inactive) | > 100 µM (inactive) | > 100 µM (inactive) | > 100 µM (inactive) | > 100 µM (inactive) | > 100 µM (inactive) | > 100 µM (inactive) | > 100 µM (inactive) | > 100 µM (inactive) | > 100 µM (inactive) | > 100 µM (inactive) | > 100 µM (inactive) | > 100 µM (inactive) | > 100
3 | CCCCCCCC(=O)N[C@H](C(=O)N[C@H](C(=O)N(C)[C@H](C(=O)N1CCC[C@H]1C(=O)N(C)[C@H](C)C(=O)NCc1ccc(OC)cc1OC)C(C)C)C(C)C)C(C)C (Octanoyl-VV[NMeV]P[dNMeA]-X28) | 23.2 µM (inactive) | 17.6 µM (inactive) | 8.77 µM (inactive) | 16.4 µM (inactive) | 14.2 µM (inactive) | 17.6 µM (inactive) | 42.1 µM (inactive) | 5.22 µM (inactive) | 5.93 µM (inactive) | 28.9 µM (inactive) | 5.26 µM (inactive) | 7.71 µM (inactive) | 12.2 µM (inactive) | 5.58 µM (inactive) | 22.3 µM (inactive) | 6.14 µM (inactive) | 11.5 µM (inactive) | 6.55 µM (inactive) | 3.75 µM (inactive) | 21.5
4 | c1ccc(CSSSCc2ccccc2)cc1 [DIBENZYL TRISULFIDE] | 0.463 µM (active) | 4.06 µM (inactive) | 20.7 µM (inactive) | 1.41 µM (inactive) | 0.139 µM (active) | 6.55 µM (inactive) | 1.86 µM (inactive) | 0.568 µM (active) | 0.272 µM (active) | 3.61 µM (inactive) | 1.69 µM (inactive) | 0.115 µM (active) | 0.621 µM (active) | 1.15 µM (inactive) | 1.62 µM (inactive) | 2.3 µM (inactive) | 0.0269 µM (active) | 5.09 µM (inactive) | 2.8 µM (inactive) | 0.581
5 | C=C1C(=O)O[C@H]2[C@H]1[C@H](OC(=O)/C(C)=C\C)C[C@]1(CO1)[C@@H]1[C@H](OC(C)=O)C=C(C)[C@]21O [EUPAROTIN ACETATE] | 7.46 µM (inactive) | 3.64 µM (inactive) | 14.7 µM (inactive) | 17.3 µM (inactive) | 5.18 µM (inactive) | 13.7 µM (inactive) | 21.5 µM (inactive) | 17.9 µM (inactive) | 6.58 µM (inactive) | > 59.6 µM (inactive) | 10.6 µM (inactive) | 8.85 µM (inactive) | 12.7 µM (inactive) | 30.8 µM (inactive) | 7.73 µM (inactive) | 32.8 µM (inactive) | 2.36 µM (inactive) | 69.2 µM (inactive) | 19.5 µM (inactive) | 13.3
6 | C[C@]12CC[C@H]3[C@@H](CC[C@]4(O)C[C@@H](O)CC[C@]34C=O)[C@@]1(O)CC[C@@H]2C1=CC(=O)OC1 [STROPHANTHIDIN] | 0.321 µM (active) | 0.386 µM (active) | 1.73 µM (inactive) | 0.19 µM (active) | 0.112 µM (active) | 0.444 µM (active) | 0.403 µM (active) | 0.522 µM (active) | 0.259 µM (active) | 0.568 µM (active) | 0.142 µM (active) | 0.528 µM (active) | 0.453 µM (active) | 0.498 µM (active) | 0.465 µM (active) | 0.298 µM (active) | 0.488 µM (active) | 0.159 µM (active) | 0.453 µM (active) | 0.413
